According to PubChem BioAssay AID1996:
Converted amounts (≈) assume the structure as drawn.

details: buffer; pH 7.4; 200.0 µM

| SMILES | solubility kinetic [µg/mL] |
| --- | --- |
| COc1cccc(/C=C/C(=O)OCC(=O)Nc2cccc(S(=O)(=O)NC3=NCCCCC3)c2)c1 | 13.5 (≈ 27.8 µM) |
| CCN1CCN(c2ccc(S(=O)(=O)N3CCCC3)cn2)CC1 | 34.6 (≈ 107 µM) |
| CCCOC(=O)c1ccc(NC(=O)Cc2cccs2)cc1 | 24 (≈ 79.1 µM) |
| Cc1cc2c(c(=O)o1)C(c1ccc([N+](=O)[O-])o1)C(C#N)=C(N)O2 (stereo not given) | > 47.3 |
| CCCCOc1ccc(-c2c(C#N)c(N)[nH]c(=S)c2C#N)cc1 | 35.6 (≈ 110 µM) |
| C[N+](C)(C)C[C@H](O)CC(=O)O.[Cl-] | > 29.6 |
| CC(CC(=O)NCc1ccc(Cl)cc1)c1ccccc1 (stereo not given) | 39 (≈ 136 µM) |
| Cn1nc(C(C)(C)C)c([N+](=O)[O-])c1C(=O)N1CCOCC1 | > 44.4 |
| O=C(/C=C/c1ccccc1)OCN1C(=O)c2ccccc2C1=O | 2.6 (≈ 8.46 µM) |
| Cc1nc(N)c(C#N)c(-c2ccc3c(c2)OCO3)c1C | 0.5 (≈ 1.87 µM) |
| Cc1ccccc1N=CC1=C(O)c2ccccc2C1=O | < 0.6 |
| O=C(COC(=O)c1ccc(Cl)c([N+](=O)[O-])c1)NC1CCCC1 | 7.6 (≈ 23.3 µM) |
| O=C(CCS(=O)(=O)c1ccccc1)Nc1ccccn1 | > 43.6 |
| CC(C)c1ccc(C(O)c2nc3ccccc3n2C)cc1 (stereo not given) | 10.3 (≈ 36.7 µM) |
| COC(CNC(=O)c1cccnc1)OC | 26.4 (≈ 126 µM) |
| CC(=O)c1cccc(NC(=S)NCCc2ccc(F)cc2)c1 | > 47.5 |
| Cc1ccc(CN(C)Cc2cc(=O)oc3cc(C)c(Cl)cc23)cc1 | < 0.7 |
| COc1cc2c(cc1OC)CN(C(=O)c1ccc3[nH]c(C)c(C)c3c1)CC2 | 6.9 (≈ 18.9 µM) |
| O=C(CSc1ccccn1)Nc1ccc2c(c1)OCO2 | > 43.2 |
| C=CCn1c(SC(F)F)nc2scc(-c3ccco3)c2c1=O | < 0.4 |
| O=C(Nc1cccc2c1C(=O)NC2=O)c1ccccc1[N+](=O)[O-] | 6.9 (≈ 22.2 µM) |
| CN(C)/C(=N\S(=O)(=O)c1ccc(Cl)cc1)c1ccc(F)cc1 | > 51.1 |
| Cc1ccc(C(=O)Nc2ccccc2C(=O)NCc2ccco2)cc1 | 4.6 (≈ 13.8 µM) |
| O=C(CCCOc1ccccc1)Nc1cccc(S(=O)(=O)N2CCOCC2)c1 | 57.6 (≈ 142 µM) |

| SMILES | solubility kinetic [µg/mL] |
| --- | --- |
| N/C(CN1CCCCC1)=N\S(=O)(=O)c1cc(Cl)cc(Cl)c1 | 3.7 (≈ 10.6 µM) |
| COCc1ccc(CN2CCC(CO)(CC3CCCCO3)CC2)o1 (stereo not given) | > 50.6 |
| COc1ccc(N=C2NC(=O)/C(=C/c3ccco3)S2)cc1 | 1.6 (≈ 5.33 µM) |
| O=C(NC(=S)N1CCN(c2ccc(O)cc2)CC1)c1ccco1 | > 49.7 |
| Cc1ccc2nc(NC(=O)C3CC3C)sc2c1 (stereo not given) | 2.4 (≈ 9.74 µM) |
| COc1ccc(Br)c(C(=O)NC(C)(C)CO)c1 | > 45.3 |
| CCOC(=O)Nc1cccnc1Sc1ccc(Cl)cc1 | 35.1 (≈ 114 µM) |
| COc1ccccc1CCNS(=O)(=O)c1cn(C)c(=O)n(C)c1=O | > 53 |
| O=C(NCC(=O)N1CCCCCCC1)c1ccco1 | > 39.6 |
| CC(=O)Nc1cccc(NC(=O)CCNC(=O)c2ccccc2)c1 | > 48.8 |
| O=C(COC(=O)c1ccc(Cl)nc1)NC1CCCc2ccccc21 (stereo not given) | 36.1 (≈ 105 µM) |
| CSc1cc(CS(=O)(=O)c2ccccc2)nc(-c2ccccc2)n1 | < 0.4 |
| CC(=O)c1c(C)oc2ccc(NS(=O)(=O)c3ccc(C)cc3)cc12 | < 0.7 |
| COc1ccc(NC(=O)c2coc(C)c2)cc1 | 31.9 (≈ 138 µM) |
| Cc1ccccc1OCC(=O)NC(C)c1ccccc1 (stereo not given) | 39.8 (≈ 148 µM) |
| O=[N+]([O-])c1ccc(CS(=O)(=O)c2ccc(Cl)cc2)cc1 | 3.4 (≈ 10.9 µM) |
| COc1cccc(-c2cc(-c3cccnc3)c(C#N)c(N)n2)c1 | 0.7 (≈ 2.32 µM) |
| CCCCNC(=S)Nc1ccc(F)cc1 | 30.1 (≈ 133 µM) |
| CC(C)Cc1nc2ccccc2[nH]1 | > 26.1 |
| O=C(COC(=O)COc1ccc(Cl)cc1Br)NC1CC1 | > 54.4 |
| COC(=O)[C@H](CC(C)C)NC(=O)N1CCC(C)CC1 | > 40.6 |
| O=C1N=C(N2CCOCC2)S/C1=C\c1cccs1 | > 42.1 |
| O=C(O)C(Cc1c[nH]c2ccccc12)N1C(=O)C2C3c4ccccc4C(c4ccccc43)[C@@H]2C1=O (stereo not given in full) | 37.1 (≈ 80.2 µM) |
| Cc1ccccc1C1NC(=S)NC2=C1C(=O)CC(C)(C)C2 (stereo not given) | 39.3 (≈ 131 µM) |

| SMILES | solubility kinetic [µg/mL] |
| --- | --- |
| Cc1cc2cc(OCc3ccccc3)ccc2n1C | < 0.5 |
| O=C(NC1CCCCC1)NC1C2CC3CC(C2)CC1C3 (stereo not given) | 2.3 (≈ 8.32 µM) |
| CC(C)Cc1nnc(NC(=O)C2=COCCO2)s1 | > 40.4 |
| COc1ccccc1C(=O)Nc1ccncc1 | 33.4 (≈ 146 µM) |
| O=C(NC1CCN(C(=O)Nc2cccc(F)c2)CC1)c1ccco1 | > 49.7 |
| O=C(CN1C(=O)NC(c2ccccc2)(c2ccccc2)C1=O)NCc1ccc(F)cc1 | 6.4 (≈ 15.3 µM) |
| Cc1ccc(OCCCn2ccnc2)c(Br)c1 | 30.8 (≈ 104 µM) |
| CN(C(=O)CSc1ncnc2sc3c(c12)CCCC3)C1CCS(=O)(=O)C1 (stereo not given) | > 61.7 |
| CC(=O)Nc1nnc(SCC(=O)NC2CCCC2)s1 | > 45.1 |
| Cc1cccnc1NC(=O)c1ccc2c(c1)OCO2 | > 38.4 |
| O=C(O)CC(C(=O)Nc1ccc(F)cc1)C1CCCO1 (stereo not given) | > 42.2 |
| Cc1nccc(-c2ccc3c(c2)OCO3)n1 | 30.3 (≈ 141 µM) |
| Cc1ccccc1OCC(=O)OC(C)C(=O)NC1CCCC1 (stereo not given) | > 45.8 |
| CC(C)CN1CCN(Cc2cccc3cccnc23)CC1CCO (stereo not given) | 37.1 (≈ 113 µM) |
| CC(C)N(Cc1ccccc1)C(=O)CCc1ccccc1 | 36.8 (≈ 131 µM) |
| O=C(NCc1ccccc1)N1CCN(c2ccccc2)CC1 | 16.2 (≈ 54.8 µM) |
| CC1CCc2cc(F)ccc2N1C(=O)c1cccs1 (stereo not given) | 30.8 (≈ 112 µM) |
| O=C(CN1CCN(c2ccccn2)CC1)Nc1cccc(F)c1 | 19.9 (≈ 63.3 µM) |
| CC1CC(=O)Nc2ccccc2N1C(=O)COc1ccc2ccccc2c1 (stereo not given) | 8.8 (≈ 24.4 µM) |
| COc1ccc(CCN=Cc2ccccc2O)cc1OC | > 42.8 |
| O=C(Cc1ccc(Cl)c(Cl)c1)N1CCOCC1 | > 41.1 |
| O=S(=O)(NCC(O)c1ccccc1)c1ccc(-c2ccccn2)s1 (stereo not given) | > 54.1 |
| O=C(O)c1ccc(NC(=O)c2ccco2)c(NC(=O)c2ccco2)c1 | > 51 |
| CCOC(=O)COn1c(=O)c(-c2ccccc2)[n+]([O-])c2ccccc21 | 35.2 (≈ 103 µM) |

| SMILES | solubility kinetic [µg/mL] |
| --- | --- |
| CN(C)c1ccc(P(=O)(OC2CCCCC2)C(O)c2ccccn2)cc1 (stereo not given) | > 56.2 |
| CC(=O)OCC(=O)Nc1ccc(Br)c(C)c1 | > 42.9 |
| COc1ccc(OC)c(Nc2nc(NCCC(C)C)nc(N)c2[N+](=O)[O-])c1 | < 0.1 |
| O=C(O)c1ccccc1-c1ncc(-c2ccccc2)o1 | > 39.8 |
| Clc1ccc(CN2CCCCCC2)cc1Cl | 9 (≈ 34.9 µM) |
| CCOC(=O)C(=CNc1ccc(S(N)(=O)=O)cc1)C(=O)OCC | 37.8 (≈ 110 µM) |
| CC(C)(C)C(=O)NCCCNc1ccc([N+](=O)[O-])cc1 | 38.3 (≈ 137 µM) |
| COC(=O)[C@H](Cc1ccccc1)NC(=O)NCc1ccc(C)cc1 | > 49 |
| CN(C)CCCNC(=O)c1cc(Br)ccc1O | 45.2 (≈ 150 µM) |
| COc1ccccc1NC(=O)c1ccccc1NC(=O)c1cccs1 | < 0.4 |
| O=C(NC1CCSc2ccccc21)c1cccc(Cl)c1 (stereo not given) | 2.1 (≈ 6.91 µM) |
| N#Cc1ccccc1NC(=O)CN1CCOCC1 | > 36.8 |
| CCOC(=O)C1=C(CBr)NC(=O)NC1C (stereo not given) | > 41.6 |
| COCCNc1nc(-c2ccccc2)nc2ccccc12.Cl | > 47.4 |
| NS(=O)(=O)c1ccc(NNC(=O)c2ccc(Br)o2)c([N+](=O)[O-])c1 | > 60.8 |
| CC(=O)Nc1ccc(S(=O)(=O)NCC(=O)OCC(=O)NCc2ccc3c(c2)OCO3)cc1 | > 69.5 |
| CP(=O)(Nc1ccccc1)C(Cl)(Cl)Cl (stereo not given) | > 40.9 |
| CN(C(=O)COc1ccc(Cl)cc1)C1(C)CCS(=O)(=O)C1 (stereo not given) | > 49.8 |
| O=C(NNC(=O)c1ccccc1-n1cccc1)c1ccc(F)cc1 | > 48.5 |
| CCN(c1ccccc1)S(=O)(=O)c1ccc(N2CCN(c3ccc(OC)cc3)CC2)nc1 | 1.2 (≈ 2.65 µM) |
| COc1cccc(C(C)NC(=O)C2CCCC2)c1 (stereo not given) | > 37.1 |
| C=CCON/C(CCC)=C1\C(=O)C(C(=O)OC)C(C)(C)CC1=NC (stereo not given) | 40.4 (≈ 120 µM) |
| CC(C)(C)c1csc(CS(=O)(=O)c2ccccn2)n1 | > 44.5 |
| O=C1C2CCCCN2C(=O)N1CCCCN1CCN(c2ccc(F)cc2)CC1 (stereo not given) | 43.5 (≈ 112 µM) |

| SMILES | solubility kinetic [µg/mL] |
| --- | --- |
| CN(CC(=O)NC(=O)Nc1ccccc1F)Cc1ccccc1 | 4.7 (≈ 14.9 µM) |
| O=C(O)c1ccc(S(=O)(=O)N2CCN(c3ccccn3)CC2)cc1 | > 52.1 |
| CCOc1ccccc1NC(=O)c1cccc(NC(=O)C2CCCC2)c1 | 13.4 (≈ 38 µM) |
| CCC(Oc1ccccc1)C(=O)Nc1ccccc1N1CCCC1 (stereo not given) | 7.9 (≈ 24.4 µM) |
| COc1cc(C(=O)N2CCC(C(N)=O)CC2)ccc1OCc1c(C)noc1C | > 58.1 |
| CCC1(c2ccc(F)cc2)NC(=O)N(CC(=O)NC2CCCCCC2)C1=O (stereo not given) | 10.4 (≈ 27.7 µM) |
| NC(Cc1c[nH]c2ccccc12)C(=O)NCc1ccco1 (stereo not given) | > 42.5 |
| Cn1cnnc1SCC(=O)NC1CC1 | > 31.8 |
| COc1cc(Cl)c(C)cc1NC(=O)Cc1cccs1 | 1 (≈ 3.38 µM) |
| CC(NC(=O)COC(=O)c1ccc([N+](=O)[O-])o1)c1ccccc1 (stereo not given) | > 47.7 |
| Cn1c(Cc2ccccc2)nnc1SCC(=O)Nc1ccccc1 | > 50.8 |
| COc1cccc([C@@]2(O)CCCC[C@@H]2CN(C)C)c1 | > 39.5 |
| Cc1ccc(C(=O)N2CCC(C(=O)NC3CCCCCC3)CC2)cc1 | 48.1 (≈ 140 µM) |
| CC(=O)Nc1cccc(C(=O)OCN2C(=O)c3ccccc3C2=O)c1 | 9.5 (≈ 28.1 µM) |
| Cc1ccc(NC(=O)CN(C)C(=O)c2ccc(Br)o2)cc1 | 14.1 (≈ 40.1 µM) |
| CCOc1ccc(S(=O)(=O)N(CC)CC)cc1N | > 40.9 |
| Cc1cccc(C)c1OCCN1CCCC1 | 28.7 (≈ 131 µM) |
| COc1ccc(OCCn2ccnc2C)cc1.O=C(O)C(=O)O | 41.7 |
| Cc1cc[n+](CC(=O)Nc2cccc(C)c2)cc1.[Cl-] | > 41.5 |
| COc1cc(C(=O)NC23CC4CC(CC(C4)C2)C3)cc(OC)c1OC | < 0.7 |
| N#Cc1ccc(C(=O)NC2CCCCCCC2)cc1 | > 38.5 |
| Cn1c([O-])c(Cc2cccc(Cl)c2Cl)c(=O)n(C)c1=O.[NH4+] | 43.6 |
| N#Cc1ccc(OCC(=O)N2CCCC2=O)cc1 | > 36.6 |
| COc1ccc(NC(=O)NC2CCCCCCC2)c(OC)c1 | 5.5 (≈ 18 µM) |
